One compound from ChEMBL document CHEMBL1156433, “Multiple sequential steps involved in the binding of inhibitors to cytochrome P450 3A4” (J Biol Chem, 2007) can be followed below.

Peptide text beside a SMILES is read from it.

The target in this experiment is Cytochrome P450 3A4 (Homo sapiens, UniProt P08684). Nature of the experiment: Binding affinity to recombinant CYP3A4 expressed in Escherichia coli assessed as spectral dissociation constant by spectrophotometric equilibrium binding titration method. Conditions: read-out: K. Format: ADME.
Sequence of Cytochrome P450 3A4 (P08684 whole entry): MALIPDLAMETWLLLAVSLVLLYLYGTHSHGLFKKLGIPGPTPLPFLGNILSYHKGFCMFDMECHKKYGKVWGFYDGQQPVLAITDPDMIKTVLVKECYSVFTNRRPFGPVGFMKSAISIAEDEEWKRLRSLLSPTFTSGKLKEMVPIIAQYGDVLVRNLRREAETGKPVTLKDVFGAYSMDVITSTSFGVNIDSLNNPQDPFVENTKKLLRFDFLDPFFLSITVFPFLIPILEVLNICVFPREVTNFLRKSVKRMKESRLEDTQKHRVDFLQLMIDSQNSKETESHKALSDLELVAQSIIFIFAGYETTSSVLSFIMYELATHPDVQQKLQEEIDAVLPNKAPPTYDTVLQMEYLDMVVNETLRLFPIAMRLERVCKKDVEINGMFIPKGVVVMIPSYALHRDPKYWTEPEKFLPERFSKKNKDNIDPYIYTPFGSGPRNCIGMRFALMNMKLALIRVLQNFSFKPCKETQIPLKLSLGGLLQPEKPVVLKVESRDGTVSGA

Consider `NC(=O)[C@@H]1CCCN1C(=O)[C@H](Cc1ccccc1)NC(=O)[C@@H]1CCCN1C(=O)[C@@H](N)Cc1ccc(O)cc1` [MORPHICEPTIN] (H-YPFP-NH2), for which the Kd turned out to be 7.8 mM.
